Data taken from US20200397691A1, “NICOTINE MOUTH SPRAY” (Fertin Pharma A/S, priority 2017, published 2020).

Details: nicotine concentration increased from 100 microgram/mL to 14,000 microgram/mL

## CN1CCCC1c1cccnc1 (stereo not shown) [nicotine]
  Decrease of permeability of nicotine across the buccal mucosa (factor): two
